In US20090075983A1 (priority 2006, published 2009):

What was measured:
[1] = target: T1, α7-subtype of nicotinic receptors (Rattus norvegicus, UniProt Q05941); assay: biochemical; conditions: read-out: Inhibition of 3H-α-Bungarotoxine Binding IC50
T1 construct: Cerebral cortices from male Wistar rats (150-250 g) are homogenised; from tissue; host or cells: rat cerebral cortex membrane homogenate
T1 sequence (Q05941 23-502): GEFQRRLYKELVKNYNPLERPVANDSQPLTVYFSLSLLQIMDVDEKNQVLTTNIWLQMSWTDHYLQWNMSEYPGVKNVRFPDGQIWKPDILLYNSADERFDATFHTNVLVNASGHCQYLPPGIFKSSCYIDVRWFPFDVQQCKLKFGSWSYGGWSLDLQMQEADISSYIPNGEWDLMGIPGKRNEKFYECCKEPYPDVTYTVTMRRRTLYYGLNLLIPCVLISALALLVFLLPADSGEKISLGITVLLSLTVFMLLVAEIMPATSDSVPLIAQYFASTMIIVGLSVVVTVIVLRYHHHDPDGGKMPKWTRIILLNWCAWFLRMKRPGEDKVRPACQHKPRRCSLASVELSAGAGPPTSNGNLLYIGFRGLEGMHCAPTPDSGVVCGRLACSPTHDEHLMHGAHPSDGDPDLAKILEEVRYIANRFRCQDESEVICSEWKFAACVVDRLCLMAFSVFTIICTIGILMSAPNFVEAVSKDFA

Structure (SMILES)	melting point [°C]	IC50 [1] [nM]
Cl.O=C(Nc1ccc(OC(=O)N2CCN3CCC2CC3)cc1)c1ccccc1 [Compound C1, 1,4-Diaza-bicyclo[3.2.2]nonane-4-carboxylic acid 4-benzoylamino-phenyl ester hydrochloric acid salt]	> 270	560
O=C(O)/C=C/C(=O)O.O=C(Oc1ccc(C#Cc2ccccc2)cc1)N1CCN2CCC1CC2 [Compound A1, 1,4-Diaza-bicyclo[3.2.2]nonane-4-carboxylic acid 4-phenylethynyl-phenyl ester fumaric acid salt]	160 to 177	420
